From PubChem BioAssay (NCI)
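Values below derive from 48-hour exposures of cells grown in 96-well plates, with endpoints linearly interpolated between the two concentrations bracketing the appropriate inhibition level. GI50 = concentration required for 50% inhibition of growth. TGI marks complete inhibition of growth.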

Key:
Assay in all cases: NCI-60 cell line screen, 48 h
HT29 colon = test system: HT29 colon
MALME-3M melanoma = test system: MALME-3M melanoma
OVCAR-5 ovarian = test system: OVCAR-5 ovarian
NCI-H522 lung = test system: NCI-H522 lung
OVCAR-8 ovarian = test system: OVCAR-8 ovarian
UACC-257 melanoma = test system: UACC-257 melanoma
HS 578T breast = test system: HS 578T breast
U251 CNS = test system: U251 CNS
A498 renal = test system: A498 renal
NCI-H460 lung = test system: NCI-H460 lung
MDA-MB-435 = test system: MDA-MB-435
COLO 205 colon = test system: COLO 205 colon
PC-3 prostate = test system: PC-3 prostate
RPMI-8226 leukemia = test system: RPMI-8226 leukemia
CCRF-CEM leukemia = test system: CCRF-CEM leukemia
RXF 393 renal = test system: RXF 393 renal
OVCAR-3 ovarian = test system: OVCAR-3 ovarian
K-562 leukemia = test system: K-562 leukemia
LOX IMVI melanoma = test system: LOX IMVI melanoma
SK-MEL-28 melanoma = test system: SK-MEL-28 melanoma
SF-539 CNS = test system: SF-539 CNS
HCT-116 colon = test system: HCT-116 colon
HCC-2998 colon = test system: HCC-2998 colon
786-0 renal = test system: 786-0 renal
DU-145 prostate = test system: DU-145 prostate
SNB-75 CNS = test system: SNB-75 CNS
HOP-92 NSCLC = test system: HOP-92 NSCLC
SK-MEL-5 melanoma = test system: SK-MEL-5 melanoma

## CC[C@H](Nc1cc(C)nc(N)n1)c1nc2cccc(NCc3ccc(C(=O)NO)cc3)c2c(=O)n1-c1ccccc1
HT29 colon
  GI50: 2690 nM
  TGI: 10400 nM
MALME-3M melanoma
  GI50: 1390 nM
  TGI: 2930 nM
OVCAR-5 ovarian
  GI50: 2400 nM
  TGI: 7590 nM
NCI-H522 lung
  GI50: 1060 nM
  TGI: 3190 nM
OVCAR-8 ovarian
  GI50: 2040 nM
  TGI: 6130 nM
UACC-257 melanoma
  GI50: 2170 nM
  TGI: 7410 nM
HS 578T breast
  GI50: 2360 nM
  TGI: 9970 nM
U251 CNS
  GI50: 1470 nM
  TGI: 3030 nM
A498 renal
  GI50: 1510 nM
  TGI: 3330 nM
NCI-H460 lung
  GI50: 1940 nM
  TGI: 5680 nM
MDA-MB-435
  GI50: 1640 nM
  TGI: 3120 nM
COLO 205 colon
  GI50: 1560 nM
  TGI: 3790 nM
PC-3 prostate
  GI50: 1830 nM
  TGI: 4410 nM
RPMI-8226 leukemia
  GI50: 2080 nM
  TGI: 7400 nM
CCRF-CEM leukemia
  GI50: 1620 nM
  TGI: 11400 nM
RXF 393 renal
  GI50: 1480 nM
  TGI: 2900 nM
OVCAR-3 ovarian
  GI50: 1860 nM
  TGI: 4390 nM
K-562 leukemia
  GI50: 2560 nM
  TGI: 10000 nM
LOX IMVI melanoma
  GI50: 1780 nM
  TGI: 3290 nM
SK-MEL-28 melanoma
  GI50: 1830 nM
  TGI: 3900 nM
SF-539 CNS
  GI50: 1670 nM
  TGI: 3260 nM
HCT-116 colon
  GI50: 1550 nM
  TGI: 3720 nM
HCC-2998 colon
  GI50: 1820 nM
  TGI: 3340 nM
786-0 renal
  GI50: 1850 nM
  TGI: 3790 nM
DU-145 prostate
  GI50: 2990 nM
  TGI: 10600 nM
SNB-75 CNS
  GI50: 1120 nM
  TGI: 3500 nM
HOP-92 NSCLC
  GI50: 1330 nM
  TGI: 3540 nM
SK-MEL-5 melanoma
  GI50: 1960 nM
  TGI: 4410 nM
